# Source: PMC6030077, “Dual role of HDAC10 in lysosomal exocytosis and DNA repair promotes neuroblastoma chemoresistance” (Scientific Reports, 2018)
# What was measured:
# HDAC10 = target: T1, HDAC10 (Homo sapiens, UniProt Q969S8); experiment: In-cell target engagement (NanoBRET) assay, NanoLuc-HDAC10; assay type: binding
# T1 construct: NanoLuc®-HDAC10 FL Fusion Vector; host or cells: HeLa cells, stably transfected
# T1 sequence (Q969S8 1-669): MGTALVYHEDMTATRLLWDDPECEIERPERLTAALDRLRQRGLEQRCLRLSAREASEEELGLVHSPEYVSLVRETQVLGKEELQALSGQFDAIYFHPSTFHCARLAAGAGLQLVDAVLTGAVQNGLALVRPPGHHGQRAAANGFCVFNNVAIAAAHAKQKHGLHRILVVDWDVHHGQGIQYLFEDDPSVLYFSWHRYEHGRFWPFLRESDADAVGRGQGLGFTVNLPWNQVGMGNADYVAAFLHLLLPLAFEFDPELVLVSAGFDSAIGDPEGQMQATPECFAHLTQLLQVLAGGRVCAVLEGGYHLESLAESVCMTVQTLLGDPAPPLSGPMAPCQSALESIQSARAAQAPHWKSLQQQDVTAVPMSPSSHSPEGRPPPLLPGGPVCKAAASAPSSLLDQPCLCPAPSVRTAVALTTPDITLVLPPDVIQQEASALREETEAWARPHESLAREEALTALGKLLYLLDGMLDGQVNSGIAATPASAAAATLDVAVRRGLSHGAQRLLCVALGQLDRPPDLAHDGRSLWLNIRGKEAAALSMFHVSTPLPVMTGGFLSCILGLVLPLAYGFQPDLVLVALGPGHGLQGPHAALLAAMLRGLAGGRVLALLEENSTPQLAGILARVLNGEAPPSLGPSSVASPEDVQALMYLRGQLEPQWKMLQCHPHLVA
# Text: We next investigated if accumulation of lysosomes was also affected by inhibition of HDAC6 and HDAC10, respectively. […] Since no bona fide downstream target protein of HDAC10 has been described to date, we performed an in-cell target engagement (NanoBRET) assay that measures competitive displacement of a fluorescently-labeled tracer from NanoLuc® Luciferase coupled HDAC10 enzyme. […] To exclude that lysosomal accumulation after treatment with HDAC6/10 inhibitors was caused by off-target inhibition of class I HDACs, we treated BE(2)-C cells with 1 mM class I HDAC inhibitor valproic acid (VPA).
# HeLa cells, stabily transfected with NanoBRET plasmids NanoLuc®-HDAC6 FL Fusion Vector and NanoLuc®-HDAC10 FL Fusion Vector (Promega, Madison, WI, USA) were seeded at 20.000 cells/well in white 96 well plates. Without further incubation, tracer (0.3 µM) and drugs were added in separate steps and plates were placed in a tissue culture incubator for 2 h. For NanoBRET quantification, plates were put at room temperature for 10 minutes. Nanoglow substrate, diluted in OptiMEM without phenol red, was added and measured within 10 minutes in an OPTIMA plate reader (460 nm emission for donor and 610LP filter for acceptor). The BRET signal was calculated by the ratio of acceptor signal and donor signal.
# [1] = tested on: proliferating human fibroblasts; experiment: Cell viability, automated trypan blue exclusion, fibroblasts; assay type: cell-based; settings: 7.5 µM tubastatin A
# Procedure: Adherent cell lines were trypsinized and cells were pooled with corresponding supernatant, centrifuged and resuspended in 1.5 ml cell culture media. Cell viability was measured by automated trypan blue staining with the Vi-Cell XR Cell Viability Analyzer from Beckman Coulter (Krefeld, Germany).
# [2] = tested on: proliferating human fibroblasts; experiment: Flow cytometric analysis of cellular doxorubicin fluorescence, fibroblasts; assay type: cell-based; settings: 100 ng/ml doxorubicin 48 h; tubastatin A 7.5 µM, vacuolin-1 10 µM, verapamil 10 µM
# BE(2)-C cells = experiment: Confocal fluorescence microscopy of doxorubicin-loaded damaged nuclei; assay type: cell-based, human; settings: 250 ng/ml doxorubicin + 7.5 µM tubastatin A, 24 h
# Procedure: BE(2)-C cells were seeded at a density of 2 ∗ 10^4 cells per well into an ibidi 8-well µ-slide one day before treatment. For analysis of doxorubicin uptake, cells were treated with 250 ng/ml doxorubicin +/− HDAC6/10 or lysosomal inhibitors for 24 h. The next day, cells were washed in PBS, fixed for 20 minutes using 4% PFA at room temperature, washed twice with PBS and counterstained with DAPI (4′,6-Diamidino-2-phenylindole). In case of LysoTracker® Red staining, cells were treated for 24 h with HDAC6/10 inhibitors. One hour before fixation, LysoTracker® Red was added at a final concentration of 50 nM and cells were stained for 1 h under standard cell culture conditions. Cells were washed as described, fixed for 15 minutes using 4% PFA at room temperature and counterstained as described above. […] Cells were fixed for 15 minutes using 4% PFA, permeabilized for 30 minutes with 0.2% Triton X-100 and blocked in 0.05% Triton X-100 and 3% BSA in PBS for 1 h at room temperature. Cells were stained with Phospho-Histone H2A.X (S139) primary antibody (CST #9718) over night (4 °C) and for 2 h with Alexa-488-labeled secondary antibody (ThermoFisher A-11008) at room temperature. Nuclei were counterstained with DAPI. Images were acquired on a Zeiss LSM710 (Oberkochen, Germany) laser scanning confocal microscope using the 40× objective.
structure (smiles),measurement,setting,value
CN1CCc2c(c3ccccc3n2Cc2ccc(C(=O)NO)cc2)C1 [tubastatin A],affinity towards HDAC10 (NanoBRET tracer displacement),HDAC10,strong affinity towards HDAC10
same,"cell death in proliferating fibroblasts, combination with 100 ng/ml doxorubicin, 24 h or 48 h",[1],did not induce significant cell death
same,intracellular doxorubicin in fibroblasts,[2],did not exhibit strongly increased intracellular doxorubicin
same,"dying cells with highly condensed chromatin, combination with doxorubicin compared to doxorubicin alone",BE(2)-C cells,increased the number of dying cells
